US10703723B2 (Truly Translational Sweden AB, priority 2017, dated 2020)
Read-outs that look alike come from different tables or passages of the source.

What was measured:
[1] = solubility in de-ionized water at rt after 24 h; conditions: thermodynamic from solid
Protocol: The produced examples were characterized regarding identity, crystal modification, thermal properties, melting point, solubility in water, purity, and hygroscopicity using the following methods:
The flow rate was 1.0 mL/min, injection volume 5 μL and detection wavelengths 358 nm (for assay) and 260 nm (for chromatographic purity). Quantitation was performed using external standard methodology. The assay method has been validated with respect to selectivity, repeatability and linearity.

[2] = appearance of test formulations / solubility over time in PBC buffer (pH 7.4); format: physicochemical; conditions: 0.5% CMC in phosphate buffer (pH 7.4)
in vivo = conditions: rat, po, 40 mg/kg
Protocol: In accordance with Swedish legislations for preclinical in vivo studies in rodents and following evaluation and approval of the experimental procedures the local ethical committee (M388-12), following acclimatization to the housing conditions for a minimum of 7 days after arrival, male Wistar (Hannover) rats (Taconic, Denmark), average weight 300 g; average age 8-10 weeks, were treated with test items (see table 1); 12-16 h prior to dosing all food except for an amount equivalent to a half day consumption was removed. […] The rats were conscious during sample collection and the blood was taken from the sub-lingual vein. Blood samples were collected from each rat over a period of up to 24 h. At each time point two aliquots of 50 μL each was added to a vial containing 150 μL of sterile water. The samples were mixed immediately and stored in −18° C. until preparation for bioanalysis commenced. All formulations were prepared on the same day that dosing took place. The body weight of the rat was recorded before dosing. The weight of the syringe was recorded before and after administration to allow calculation of the actual amount of test sample delivered. Actual dose administered was used during the evaluation of the data.
Samples and standards were injected by a HTC PAL from CTC analytics into an LC system from Shimadzu consisting of a high pressure gradient system of two LC-10 AD pumps controlled by a SCL-10A controller from Shimadzu. The samples were separated using reverse-phase chromatography with gradient elution at a flow rate of 0.8 mL/min. Mobile phases were A:94.9/5/0.1 water/acetonitrile/formic acid and B:5/94.9/0.1 water/acetonitrile/formic acid. Gradient started at 0% B and increased linearly to 100% B in 4 minutes, 100% B was kept for 0.5 minutes and then the system returned to 0% B in 0.1 minutes. The system was equilibrated for 1.4 minutes until the total run time of 6 minutes. The eluent was analyzed by a Quattro Ultima from Micromass equipped with an electrospray ion source. Data was collected and calibrations were calculated by MassLynx 4.0 software. […] The eluent was ionized by negative ion electrospray and the mrm transition from 397 to 197 m/z was monitored.
The diluted blood sample (50 μL blood, 150 μL water) was thawed and mixed. 400 μL of acetonitrile, to precipitate the protein was added and mixed again. The sample was centrifuged at 5000 g for 5 minutes. 100 μL of the supernatant was transferred to a 300 μL glass vial and 100 μL of water was added to reduce the acetonitrile concentration.
The concentration of the standard curve was in the range from 5 nM to 15625 nM. Samples with analyte concentrations above the upper limit of quantification were diluted with matrix to reach within the assay range. A non-compartmental analysis (NCA) was performed using the Phoenix WinNonLin analysis tool.

[3] = ambient temperature; cited from earlier work
[4] = cited from earlier work; for time to steady state levels: sulfasalazine therapy
[5] = RA, 24 weeks, cited from earlier work

Q: For `O=C(OCC(=O)N1CCOCC1)c1cc(/N=N/c2ccc(S(=O)(=O)Nc3ccccn3)cc2)ccc1O` [Compound 1a, 2-morpholino-2-oxoethyl-2-hydroxy-5-((4-(N-(pyridine-2-yl)sulfamoyl)phenyl)diazenyl) benzoate], which solubility at 24 h [1] is on record?
A: Its solubility at 24 h is > 5 mg/mL.

Q: What about the “Appearance of test formulations t = 0 h” value [2] of the same molecule?
A: The value was “clear solution”.

Q: And the “Appearance of test formulations t = 4 h” value [2]?
A: Its value is “clear solution”.

Q: With `CNC(=O)COC(=O)c1cc(/N=N/c2ccc(S(=O)(=O)Nc3ccccn3)cc2)ccc1O` [Compound 2a, 2-(methylamino)-2-oxoethyl-2-hydroxy-5-((4-(N-(pyridine-2-yl)sulfamoyl)phenyl)diazenyl) benzoate] as the molecule, how does the solubility at 24 h [1] read?
A: The solubility at 24 h was > 5 mg/mL.

Q: What about the “Appearance of test formulations t = 0 h” value [2] of the same molecule?
A: Its value is “clear solution”.

Q: And the “Appearance of test formulations t = 4 h” value [2]?
A: Its value is “clear solution”.

Q: For `CC(C)NC(=O)COC(=O)c1cc(N=Nc2ccc(S(=O)(=O)Nc3ccccn3)cc2)ccc1O` [Compound 2d, 2-(isopropylamino)-2-oxoethyl-2-hydroxy-5-((4-(N-(pyridine-2-yl)sulfamoyl)phenyl)diazenyl) benzoate], which “Appearance of test formulations t = 0 h” value [2] is on record?
A: The value was “clear solution”.

Q: What about the “Appearance of test formulations t = 4 h” value [2] of the same molecule?
A: The value was “clear solution”.

Q: And the “Ratio SP to SSZ for AUC0-4 h (h*nmol/L)” value (in vivo)?
A: The value was 2:1.

Q: And the “Ratio SP to SSZ for Cmax (nmol/L)” value (in vivo)?
A: Its value is 2:1.

Q: Which results are given for `O=C(COC(=O)c1cc(N=Nc2ccc(S(=O)(=O)Nc3ccccn3)cc2)ccc1O)NCC1CC1` [Compound 2f, 2-((cyclopropylmethyl)amino)-2-oxoethyl-2-hydroxy-5-((4-(N-(pyridine-2-yl)sulfamoyl)phenyl)diazenyl) benzoate]?
A: Appearance of test formulations t = 0 h [2]: clear solution; Appearance of test formulations t = 4 h [2]: milky; Ratio SP to SSZ for AUC0-4 h (h*nmol/L) (in vivo): 6:1; Ratio SP to SSZ for Cmax (nmol/L) (in vivo): 2:1

Q: Which “Appearance of test formulations t = 0 h” value [2] does the source give for `COCCNC(=O)COC(=O)c1cc(N=Nc2ccc(S(=O)(=O)Nc3ccccn3)cc2)ccc1O` [Compound 2h, 2-(2-methoxylethyl)amino)-2-oxoethyl-2-hydroxy-5-((4-(N-(pyridine-2-yl)sulfamoyl)phenyl)diazenyl) benzoate] here?
A: Its value is “clear solution”.

Q: What about the “Appearance of test formulations t = 4 h” value [2] of the same molecule?
A: The value was “clear solution”.

Q: What about the “Ratio SP to SSZ for AUC0-4 h (h*nmol/L)” value (in vivo) of the same molecule?
A: The value was 8:1.

Q: What about the “Ratio SP to SSZ for Cmax (nmol/L)” value (in vivo) of the same molecule?
A: Its value is 6:1.

Q: For `CN(C)C(=O)COC(=O)c1cc(/N=N/c2ccc(S(=O)(=O)Nc3ccccn3)cc2)ccc1O` [Compound 3a, 2-(dimethylamino)-2-oxoethyl-2-hydroxy-5-((4-(N-(pyridine-2-yl)sulfamoyl)phenyl)diazenyl) benzoate], which solubility at 24 h [1] is on record?
A: Its solubility at 24 h is > 0.5 mg/mL.

Q: And the “Appearance of test formulations t = 0 h” value [2]?
A: The value was “clear solution”.

Q: And the “Appearance of test formulations t = 4 h” value [2]?
A: Its value is “milky”.

Q: Which “Appearance of test formulations t = 0 h” value [2] does the source give for `CCN(CC)C(=O)COC(=O)c1cc(N=Nc2ccc(S(=O)(=O)Nc3ccccn3)cc2)ccc1O` [Compound 3b, 2-(diethylamino)-2-oxoethyl-2-hydroxy-5-((4-(N-(pyridine-2-yl)sulfamoyl)phenyl)diazenyl) benzoate] here?
A: Its value is “clear solution”.

Q: What about the “Appearance of test formulations t = 4 h” value [2] of the same molecule?
A: The value was “clear solution”.

Q: What about the “Ratio SP to SSZ for AUC0-4 h (h*nmol/L)” value (in vivo) of the same molecule?
A: Its value is 8:1.

Q: And the “Ratio SP to SSZ for Cmax (nmol/L)” value (in vivo)?
A: The value was 5:1.

Q: What does the source list for `CCN(C)C(=O)COC(=O)c1cc(/N=N/c2ccc(S(=O)(=O)Nc3ccccn3)cc2)ccc1O` [Compound 4a, 2-(ethyl(methyl)amino)-2-oxoethyl-2-hydroxy-5-((4-(N-(pyridine-2-yl)sulfamoyl)phenyl)diazenyl) benzoate]?
A: solubility at 24 h [1]: > 1 mg/mL; Appearance of test formulations t = 0 h [2]: clear solution; Appearance of test formulations t = 4 h [2]: clear solution

Q: Which water solubility [3] does the source give for `O=C(O)c1cc(/N=N/c2ccc(S(=O)(=O)Nc3ccccn3)cc2)ccc1O` [Sulfasalazine, 2-hydroxy-5-[2-[4-[(2-pyridinylamino)sulfonyl]phenyl]diazenyl]-benzoic acid] here?
A: Its water solubility is “less than 0.05 mg/mL”.

Q: What about the “time to steady state levels of sulfasalazine” value ([4]; multiple dosing) of the same molecule?
A: Its value is ≤ 24 h.

Q: And the overall clinical status ([5]; fast acetylators, 3 g/day)?
A: Its overall clinical status is “marked improvement”.

Q: And the overall clinical status ([5]; slow acetylators, half of the SSZ dose (1.5 g/d))?
A: The overall clinical status was “remained unchanged”.

Q: What about the Tmax (in vivo; male, Wistar (Hannover)) of the same molecule?
A: Its Tmax is 0.25 h.

Q: And the “Tmax for SP” value (in vivo; male, Wistar (Hannover))?
A: Its value is 4 h.

Q: With `CC(=O)Nc1ccc(S(=O)(=O)Nc2ccccn2)cc1` [acetylated sulfapyridine] as the molecule, how does the “time to steady state levels” value [4] read?
A: The value was 72 h.

Q: For `Nc1ccc(S(=O)(=O)Nc2ccccn2)cc1` [sulfapyridine], which elimination half-life ([4]; fast acetylators) is on record?
A: The elimination half-life was 5.5 h.

Q: What about the total plasma clearance ([4]; fast acetylators) of the same molecule?
A: The total plasma clearance was 135.3 mL/min.

Q: What about the “time after which metabolite can be detected in the plasma” value ([4]; following oral administration of sulfasalazine) of the same molecule?
A: The value was “about 10 hours”.

Q: What about the plasma protein binding ([4]; no difference between fast and slow acetylators) of the same molecule?
A: Its plasma protein binding is “ca. 50 °”.

Q: What about the elimination half-life ([4]; slow acetylators) of the same molecule?
A: Its elimination half-life is 15.3 h.

Q: And the total plasma clearance ([4]; slow acetylators)?
A: Its total plasma clearance is 36.9 mL/min.

Q: What about the “time to steady state levels” value [4] of the same molecule?
A: The value was 72 h.
